Measured values: BindingDB's records for patent US20240109865 (Tyra Biosciences, 2024)

Columns and labels:
Assay in all cases: Kinase Assay
[1] = target: Fibroblast growth factor receptor 2 (Homo sapiens, UniProt P21802)
Procedure: (§1) Kinase-tagged T7 phage strains were prepared in an E. coli host derived from the BL21 strain. E. coli were grown to log-phase and infected with T7 phage and incubated with shaking at 32° C. until lysis. The lysates were centrifuged and filtered to remove cell debris. […] The liganded beads were blocked with excess biotin and washed with blocking buffer SeaBlock (Pierce), […], 1 mM DTT to remove unbound ligand and to reduce non-specific binding. […] Kds were determined using an 11-point 3-fold compound dilution series with three DMSO control points. […] The compounds were then diluted directly into the assays such that the final concentration of DMSO was 0.9%. All reactions performed in polypropylene 384-well plate. Each was a final volume of 0.02 ml.

[2] = target: Fibroblast growth factor receptor 1 (Homo sapiens, UniProt P11362)
Procedure: as §1

[3] = target: Fibroblast growth factor receptor 4 (Homo sapiens, UniProt P22455)
Procedure: as §1

Sequence of Fibroblast growth factor receptor 1 (P11362 whole entry): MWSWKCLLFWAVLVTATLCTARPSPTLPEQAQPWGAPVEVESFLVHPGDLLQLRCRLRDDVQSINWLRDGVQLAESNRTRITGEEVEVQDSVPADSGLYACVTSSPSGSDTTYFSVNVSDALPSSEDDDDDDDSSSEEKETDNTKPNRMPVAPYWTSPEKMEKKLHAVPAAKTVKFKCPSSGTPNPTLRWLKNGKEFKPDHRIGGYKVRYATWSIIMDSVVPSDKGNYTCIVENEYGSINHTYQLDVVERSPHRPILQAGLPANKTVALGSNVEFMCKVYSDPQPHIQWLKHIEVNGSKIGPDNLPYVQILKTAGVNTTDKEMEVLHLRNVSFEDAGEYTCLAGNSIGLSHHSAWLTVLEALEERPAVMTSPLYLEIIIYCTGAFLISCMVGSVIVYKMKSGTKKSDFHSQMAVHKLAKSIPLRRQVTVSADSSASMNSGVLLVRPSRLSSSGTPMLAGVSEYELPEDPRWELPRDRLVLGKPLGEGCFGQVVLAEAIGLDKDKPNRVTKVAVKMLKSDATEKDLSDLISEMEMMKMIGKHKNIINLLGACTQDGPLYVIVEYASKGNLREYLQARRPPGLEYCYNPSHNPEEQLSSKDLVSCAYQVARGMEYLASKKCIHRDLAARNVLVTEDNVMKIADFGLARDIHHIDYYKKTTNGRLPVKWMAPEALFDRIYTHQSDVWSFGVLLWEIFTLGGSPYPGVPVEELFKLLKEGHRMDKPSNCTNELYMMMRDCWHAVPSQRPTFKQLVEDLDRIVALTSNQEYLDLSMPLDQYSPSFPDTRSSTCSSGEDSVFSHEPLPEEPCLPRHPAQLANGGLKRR
Sequence of Fibroblast growth factor receptor 4 (P22455 whole entry): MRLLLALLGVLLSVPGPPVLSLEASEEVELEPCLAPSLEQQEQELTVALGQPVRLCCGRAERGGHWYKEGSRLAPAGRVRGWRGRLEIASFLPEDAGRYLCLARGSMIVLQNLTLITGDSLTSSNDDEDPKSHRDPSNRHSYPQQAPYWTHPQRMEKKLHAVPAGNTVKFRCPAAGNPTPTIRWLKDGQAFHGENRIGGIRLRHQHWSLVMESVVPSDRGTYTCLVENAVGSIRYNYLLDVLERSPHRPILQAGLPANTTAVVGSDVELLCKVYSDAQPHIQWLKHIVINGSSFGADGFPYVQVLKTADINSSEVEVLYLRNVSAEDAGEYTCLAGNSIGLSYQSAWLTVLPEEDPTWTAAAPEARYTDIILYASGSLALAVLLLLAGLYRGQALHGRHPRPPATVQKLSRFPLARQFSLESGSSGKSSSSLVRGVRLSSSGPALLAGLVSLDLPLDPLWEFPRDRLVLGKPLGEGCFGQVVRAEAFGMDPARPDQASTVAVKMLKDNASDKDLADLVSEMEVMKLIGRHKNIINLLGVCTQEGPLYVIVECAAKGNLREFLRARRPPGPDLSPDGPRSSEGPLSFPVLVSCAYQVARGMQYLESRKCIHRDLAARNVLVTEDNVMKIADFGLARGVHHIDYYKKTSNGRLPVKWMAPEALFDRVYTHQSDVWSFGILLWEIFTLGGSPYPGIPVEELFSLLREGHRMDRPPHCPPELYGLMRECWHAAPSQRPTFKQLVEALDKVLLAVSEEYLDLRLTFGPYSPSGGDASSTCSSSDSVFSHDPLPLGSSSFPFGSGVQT
Sequence of Fibroblast growth factor receptor 2 (P21802 whole entry): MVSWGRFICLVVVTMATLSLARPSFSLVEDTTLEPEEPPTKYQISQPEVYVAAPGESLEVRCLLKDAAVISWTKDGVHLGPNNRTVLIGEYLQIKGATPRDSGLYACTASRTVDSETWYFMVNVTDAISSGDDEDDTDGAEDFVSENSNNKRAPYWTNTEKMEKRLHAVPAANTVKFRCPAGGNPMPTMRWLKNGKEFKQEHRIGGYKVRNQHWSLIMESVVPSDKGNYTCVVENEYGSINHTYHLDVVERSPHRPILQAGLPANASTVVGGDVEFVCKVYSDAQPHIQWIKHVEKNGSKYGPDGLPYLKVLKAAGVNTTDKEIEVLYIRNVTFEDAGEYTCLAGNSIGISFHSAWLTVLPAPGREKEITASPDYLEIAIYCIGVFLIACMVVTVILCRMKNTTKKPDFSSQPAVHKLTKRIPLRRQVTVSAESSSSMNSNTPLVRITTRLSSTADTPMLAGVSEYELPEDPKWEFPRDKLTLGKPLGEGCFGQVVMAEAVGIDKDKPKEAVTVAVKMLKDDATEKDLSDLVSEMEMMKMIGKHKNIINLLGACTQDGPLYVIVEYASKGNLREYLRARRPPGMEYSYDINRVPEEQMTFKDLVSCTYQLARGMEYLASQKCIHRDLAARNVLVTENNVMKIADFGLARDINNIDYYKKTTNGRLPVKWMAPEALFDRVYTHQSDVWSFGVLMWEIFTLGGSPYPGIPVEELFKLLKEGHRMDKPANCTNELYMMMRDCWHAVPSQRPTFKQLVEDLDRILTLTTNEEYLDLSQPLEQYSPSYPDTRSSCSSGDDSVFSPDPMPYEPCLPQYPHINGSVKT

Kd [1]	Kd [2]	Kd [3]	SMILES
> 300 nM			Cc1cnnc(C)c1[C@@H](C)Oc1ccc2[nH]nc(-c3cnc(N4CCCC4)c(C#N)c3)c2c1 [US20240109865, Example 173.]
	> 300 nM	> 300 nM	C[C@@H](Oc1ccc2[nH]nc(-c3ccc(N4CC5(CCOC5)C4)nc3)c2c1)c1c(Cl)cnnc1Cl [US20240109865, Example 223.]
